{
  "source": "PubChem BioAssay AID1963845",
  "about": "(Molecular Pharmacology Branch, DTP, NCI, 2024)",
  "test_system": "429239-143-T-J1-PDC complex spheroid viability",
  "assay": "Anticancer human tumor 429239-143-T-J1-PDC patient-derived small cell lung carcinoma cell line growth inhibition [POLQ]",
  "conditions": "for IC50: curve of first compound; for viability, T/C: stronger effect = lower value",
  "outline": "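Growth inhibition in 3D: complex spheroids (tumor PDC, HUVEC, MSC) treated with POLQ inhibitor combinations; where Cmax unknown, highest tested concentration 10 microM, except SN-38 at 1 microM.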",
  "key": {"[1]": {"conditions": "second compound 0.0316 µM, first compound 0.0316 µM"}, "[2]": {"conditions": "second compound 0.0316 µM, first compound 0.1 µM"}, "[3]": {"conditions": "second compound 0.0316 µM, first compound 0.316 µM"}, "[4]": {"conditions": "second compound 0.0316 µM, first compound 1 µM"}, "[5]": {"conditions": "second compound 0.1 µM, first compound 0.0316 µM"}, "[6]": {"conditions": "second compound 0.1 µM, first compound 0.1 µM"}, "[7]": {"conditions": "second compound 0.1 µM, first compound 0.316 µM"}, "[8]": {"conditions": "second compound 0.1 µM, first compound 1 µM"}, "[9]": {"conditions": "second compound 0.316 µM, first compound 0.0316 µM"}, "[10]": {"conditions": "second compound 0.316 µM, first compound 0.1 µM"}, "[11]": {"conditions": "second compound 0.316 µM, first compound 0.316 µM"}, "[12]": {"conditions": "second compound 0.316 µM, first compound 1 µM"}, "[13]": {"conditions": "second compound 1 µM, first compound 0.0316 µM"}, "[14]": {"conditions": "second compound 1 µM, first compound 0.1 µM"}, "[15]": {"conditions": "second compound 1 µM, first compound 0.316 µM"}, "[16]": {"conditions": "second compound 1 µM, first compound 1 µM"}, "[17]": {"conditions": "second compound 3.16 µM, first compound 0.0316 µM"}, "[18]": {"conditions": "second compound 3.16 µM, first compound 0.1 µM"}, "[19]": {"conditions": "second compound 3.16 µM, first compound 0.316 µM"}, "[20]": {"conditions": "second compound 3.16 µM, first compound 1 µM"}, "[21]": {"conditions": "second compound 10 µM, first compound 0.0316 µM"}, "[22]": {"conditions": "second compound 10 µM, first compound 0.1 µM"}, "[23]": {"conditions": "second compound 10 µM, first compound 0.316 µM"}, "[24]": {"conditions": "second compound 10 µM, first compound 1 µM"}},
  "data": [
    {"compound": "CNCc1ccc(-c2[nH]c3cc(F)cc4c3c2CCNC4=O)cc1", "note": "+ COC1C(OC(N)=O)C(O)C(Oc2ccc3c(O)c(NC(=O)c4ccc(O)c(CC=C(C)C)c4)c(=O)oc3c2C)OC1(C)C;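 note: luminescence signal used as surrogate measure of viable cells; spheroids exposed to compounds for seven days before readout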;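 for viability, T/C: 100% = DMSO vehicle control viability as luminescence relative to vehicle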", "values": [
      {"measurement": "IC50", "setting": "second compound 0.0316 µM", "result": 2.3, "unit": "µM"},
      {"measurement": "IC50", "setting": "second compound 0.1 µM", "result": 2.4, "unit": "µM"},
      {"measurement": "IC50", "setting": "second compound 0.316 µM", "result": 2.57, "unit": "µM"},
      {"measurement": "IC50", "setting": "second compound 1 µM", "result": 2.7, "unit": "µM"},
      {"measurement": "IC50", "setting": "second compound 3.16 µM", "result": 1.84, "unit": "µM"},
      {"measurement": "IC50", "setting": "second compound 10 µM", "result": 1.58, "unit": "µM"},
      {"measurement": "viability, T/C", "setting": "[1]", "result": 95.1, "unit": "%"},
      {"measurement": "viability, T/C", "setting": "[2]", "result": 75, "unit": "%"},
      {"measurement": "viability, T/C", "setting": "[3]", "result": 87.1, "unit": "%"},
      {"measurement": "viability, T/C", "setting": "[4]", "result": 66.5, "unit": "%"},
      {"measurement": "viability, T/C", "setting": "second compound 0.0316 µM, first compound 3.16 µM", "result": 43.2, "unit": "%"},
      {"measurement": "viability, T/C", "setting": "second compound 0.0316 µM, first compound 10 µM", "result": 23.2, "unit": "%"},
      {"measurement": "viability, T/C", "setting": "[5]", "result": 85.5, "unit": "%"},
      {"measurement": "viability, T/C", "setting": "[6]", "result": 101, "unit": "%"},
      {"measurement": "viability, T/C", "setting": "[7]", "result": 80.6, "unit": "%"},
      {"measurement": "viability, T/C", "setting": "[8]", "result": 65.9, "unit": "%"},
      {"measurement": "viability, T/C", "setting": "second compound 0.1 µM, first compound 3.16 µM", "result": 46.3, "unit": "%"},
      {"measurement": "viability, T/C", "setting": "second compound 0.1 µM, first compound 10 µM", "result": 21.4, "unit": "%"},
      {"measurement": "viability, T/C", "setting": "[9]", "result": 102, "unit": "%"},
      {"measurement": "viability, T/C", "setting": "[10]", "result": 85.5, "unit": "%"},
      {"measurement": "viability, T/C", "setting": "[11]", "result": 74.5, "unit": "%"},
      {"measurement": "viability, T/C", "setting": "[12]", "result": 69.6, "unit": "%"},
      {"measurement": "viability, T/C", "setting": "second compound 0.316 µM, first compound 3.16 µM", "result": 49.3, "unit": "%"},
      {"measurement": "viability, T/C", "setting": "second compound 0.316 µM, first compound 10 µM", "result": 21.4, "unit": "%"},
      {"measurement": "viability, T/C", "setting": "[13]", "result": 87.5, "unit": "%"},
      {"measurement": "viability, T/C", "setting": "[14]", "result": 86.9, "unit": "%"},
      {"measurement": "viability, T/C", "setting": "[15]", "result": 79.3, "unit": "%"},
      {"measurement": "viability, T/C", "setting": "[16]", "result": 72.6, "unit": "%"},
      {"measurement": "viability, T/C", "setting": "second compound 1 µM, first compound 3.16 µM", "result": 46, "unit": "%"},
      {"measurement": "viability, T/C", "setting": "second compound 1 µM, first compound 10 µM", "result": 19.7, "unit": "%"},
      {"measurement": "viability, T/C", "setting": "[17]", "result": 87.4, "unit": "%"},
      {"measurement": "viability, T/C", "setting": "[18]", "result": 88.3, "unit": "%"},
      {"measurement": "viability, T/C", "setting": "[19]", "result": 87.1, "unit": "%"},
      {"measurement": "viability, T/C", "setting": "[20]", "result": 59.8, "unit": "%"},
      {"measurement": "viability, T/C", "setting": "second compound 3.16 µM, first compound 3.16 µM", "result": 40.3, "unit": "%"},
      {"measurement": "viability, T/C", "setting": "second compound 3.16 µM, first compound 10 µM", "result": 20, "unit": "%"},
      {"measurement": "viability, T/C", "setting": "[21]", "result": 75.3, "unit": "%"},
      {"measurement": "viability, T/C", "setting": "[22]", "result": 81.3, "unit": "%"},
      {"measurement": "viability, T/C", "setting": "[23]", "result": 72.2, "unit": "%"},
      {"measurement": "viability, T/C", "setting": "[24]", "result": 55.1, "unit": "%"},
      {"measurement": "viability, T/C", "setting": "second compound 10 µM, first compound 3.16 µM", "result": 39.8, "unit": "%"},
      {"measurement": "viability, T/C", "setting": "second compound 10 µM, first compound 10 µM", "result": 19, "unit": "%"}
    ]},
    {"compound": "COc1cccc(OCCCN)c1-c1cc(Nc2cnc(C#N)cn2)n[nH]1", "note": "+ COC1C(OC(N)=O)C(O)C(Oc2ccc3c(O)c(NC(=O)c4ccc(O)c(CC=C(C)C)c4)c(=O)oc3c2C)OC1(C)C", "values": [
      {"measurement": "IC50", "setting": "second compound 0.0316 µM", "result": 0.0821, "unit": "µM"},
      {"measurement": "IC50", "setting": "second compound 0.1 µM", "result": 0.069, "unit": "µM"},
      {"measurement": "IC50", "setting": "second compound 0.316 µM", "result": 0.0696, "unit": "µM"},
      {"measurement": "IC50", "setting": "second compound 1 µM", "result": 0.0645, "unit": "µM"},
      {"measurement": "IC50", "setting": "second compound 3.16 µM", "result": 0.0579, "unit": "µM"},
      {"measurement": "IC50", "setting": "second compound 10 µM", "result": 0.0549, "unit": "µM"},
      {"measurement": "viability, T/C", "setting": "second compound 0.0316 µM, first compound 0.00316 µM", "result": 98.8, "unit": "%"},
      {"measurement": "viability, T/C", "setting": "second compound 0.0316 µM, first compound 0.01 µM", "result": 94.7, "unit": "%"},
      {"measurement": "viability, T/C", "setting": "[1]", "result": 79.8, "unit": "%"},
      {"measurement": "viability, T/C", "setting": "[2]", "result": 42.2, "unit": "%"},
      {"measurement": "viability, T/C", "setting": "[3]", "result": 32, "unit": "%"},
      {"measurement": "viability, T/C", "setting": "[4]", "result": 21.3, "unit": "%"},
      {"measurement": "viability, T/C", "setting": "second compound 0.1 µM, first compound 0.00316 µM", "result": 93.6, "unit": "%"},
      {"measurement": "viability, T/C", "setting": "second compound 0.1 µM, first compound 0.01 µM", "result": 92.8, "unit": "%"},
      {"measurement": "viability, T/C", "setting": "[5]", "result": 66.6, "unit": "%"},
      {"measurement": "viability, T/C", "setting": "[6]", "result": 42.1, "unit": "%"},
      {"measurement": "viability, T/C", "setting": "[7]", "result": 26.6, "unit": "%"},
      {"measurement": "viability, T/C", "setting": "[8]", "result": 21, "unit": "%"},
      {"measurement": "viability, T/C", "setting": "second compound 0.316 µM, first compound 0.00316 µM", "result": 99.7, "unit": "%"},
      {"measurement": "viability, T/C", "setting": "second compound 0.316 µM, first compound 0.01 µM", "result": 99, "unit": "%"},
      {"measurement": "viability, T/C", "setting": "[9]", "result": 72.8, "unit": "%"},
      {"measurement": "viability, T/C", "setting": "[10]", "result": 39.1, "unit": "%"},
      {"measurement": "viability, T/C", "setting": "[11]", "result": 27.1, "unit": "%"},
      {"measurement": "viability, T/C", "setting": "[12]", "result": 20.4, "unit": "%"},
      {"measurement": "viability, T/C", "setting": "second compound 1 µM, first compound 0.00316 µM", "result": 90.8, "unit": "%"},
      {"measurement": "viability, T/C", "setting": "second compound 1 µM, first compound 0.01 µM", "result": 99.1, "unit": "%"},
      {"measurement": "viability, T/C", "setting": "[13]", "result": 70.9, "unit": "%"},
      {"measurement": "viability, T/C", "setting": "[14]", "result": 37.3, "unit": "%"},
      {"measurement": "viability, T/C", "setting": "[15]", "result": 30.3, "unit": "%"},
      {"measurement": "viability, T/C", "setting": "[16]", "result": 24, "unit": "%"},
      {"measurement": "viability, T/C", "setting": "second compound 3.16 µM, first compound 0.00316 µM", "result": 96.3, "unit": "%"},
      {"measurement": "viability, T/C", "setting": "second compound 3.16 µM, first compound 0.01 µM", "result": 99.4, "unit": "%"},
      {"measurement": "viability, T/C", "setting": "[17]", "result": 66.7, "unit": "%"},
      {"measurement": "viability, T/C", "setting": "[18]", "result": 35.3, "unit": "%"},
      {"measurement": "viability, T/C", "setting": "[19]", "result": 28.5, "unit": "%"},
      {"measurement": "viability, T/C", "setting": "[20]", "result": 23.1, "unit": "%"},
      {"measurement": "viability, T/C", "setting": "second compound 10 µM, first compound 0.00316 µM", "result": 83.6, "unit": "%"},
      {"measurement": "viability, T/C", "setting": "second compound 10 µM, first compound 0.01 µM", "result": 83.5, "unit": "%"},
      {"measurement": "viability, T/C", "setting": "[21]", "result": 64.7, "unit": "%"},
      {"measurement": "viability, T/C", "setting": "[22]", "result": 33.5, "unit": "%"},
      {"measurement": "viability, T/C", "setting": "[23]", "result": 34, "unit": "%"},
      {"measurement": "viability, T/C", "setting": "[24]", "result": 23.4, "unit": "%"}
    ]}
  ]
}
